Source: patent US6949528B1, “Compositions containing lysophosphatidic acids which inhibit apoptosis and uses thereof” (priority 1998, dated 2005)

B1: Ovalbumin: ovalbumin from chicken egg (protein, UniProt P01012 2-386, looked up)
Ovalbumin: GSIGAASMEFCFDVFKELKVHHANENIFYCPIAIMSALAMVYLGAKDSTRTQINKVVRFDKLPGFGDSIEAQCGTSVNVHSSLRDILNQITKPNDVYSFSLASRLYAEERYPILPEYLQCVKELYRGGLEPINFQTAADQARELINSWVESQTNGIIRNVLQPSSVDSQTAMVLVNAIVFKGLWEKAFKDEDTQAMPFRVTEQESKPVQMMYQIGLFRVASMASEKMKILELPFASGTMSMLVLLPDEVSGLEQLESIINFEKLTEWTSSNVMEERKIKVYLPRMKMEEKYNLTSVLMAMGITDVFSSSANLSGISSAESLKISQAVHAAHAEINEAGREVVGSAEAGVDAASVSEEFRADHPFLFCIKHIATNAVLFFGRCVSP

How the values were obtained:
[1] = system: rat neonatal cardiomyocytes; assay: Cardiomyocyte death induced by ischemia and reperfusion; format: cell-based; settings: in mixture with PEG, FIG. 14
Experimental: (§1) Cardiomyocytes were prepared from hearts of day-old Sprague Dawley rats by trypsinization and mechanical disaggregation (Simpson, (1985)) Circ. Res. 56:884-894. The cells were resuspended in MEM, 1×MEM vitamins (Gibco), 5% fetal bovine serum and 50 U/ml penicillin-G and pre-plated for 30 minutes to reduce contamination of non-myocytes. The non-adherent cardiac myocytes were separated and seeded in 2 ml in 35 mm dishes at a density of 3.5×10^5 viable cells per ml. The cells were allowed to adhere for 16-24 hours in a 37° C./5% CO2 humidified incubator.
For serum deprivation, the medium was replaced with fresh serum-free RPMI, whereas serum/glucose deprivation was performed using glucose-free RPMI. The induction of cell death by adriamycin or C2-ceramide was accomplished by the addition of the agent prepared in serum-free RPMI. As a model of ischemia, cultures in serum and glucose free RPMI were placed in an airtight chamber and the latter was continuously perfused with oxygen-free gas overlay of 95% N2/5% CO2 for 8 hours at 37° C. […]
(§2) Because cardiomyocytes are terminally differentiated non-dividing cells, viability was determined by measurement of the decrease in the relative number of adherent cells. […] Adherent cardiomyocytes were collected from culture dishes using 0.25% Trypsin/0.05% EDTA and counted on Coulter Counter ZM and Coulter Channelyzer 256.

[2] = system: rat neonatal cardiomyocytes; assay: Cardiomyocyte death induced by serum/glucose deprivation; format: cell-based; settings: serum/glucose deprivation
Experimental: as §1
For serum deprivation, the medium was replaced with fresh serum-free RPMI, whereas serum/glucose deprivation was performed using glucose-free RPMI. The induction of cell death by adriamycin or C2-ceramide was accomplished by the addition of the agent prepared in serum-free RPMI. As a model of ischemia, cultures in serum and glucose free RPMI were placed in an airtight chamber and the latter was continuously perfused with oxygen-free gas overlay of 95% N2/5% CO2 for 8 hours at 37° C. To model reperfusion of the ischemic cells, 10% fetal bovine serum, 2 g/L of glucose were added and the cultures were returned to a normal oxygen gas overlay (37° C./5% CO2) in a humidified incubator for 16 hours.
T investigate effects of LPA, LPA plus other phospholipids, PEG or their mixtures on cell death, various combinations of these components were added to cells in serum free medium at the beginning of cytotoxic treatment.
as §2

C3H/10T1/2 cells [3] = assay: Anti-apoptotic activity assay: serum deprivation of C3H/10T1/2 cells; format: cell-based
From the text: In order to determine the […] of the claimed invention, the following method of analysis was used. The cell assay is described in detail in U.S. Pat. Nos. 5,637,486, 5,620,888, and 5,681,703, and Tomei et al. (1993) Proc Natl. Aci. 90:853-857. Briefly, mouse fibroblast C3H/10T1/2 cells (clone 8) were obtained from ATCC (Rockville, Md.) and were maintained in exponential growth phase in which the cell cycle is randomly distributed and no cells are arrested in G0, and in quiescence. Exponential growth phase was assured by seeding at 2000 cells per 1 ml (5 ml for 60 mm culture plate) five days prior to the beginning of the experiment. Assays were performed on cells only up to passage 15. At T=0, cultures were transferred to serum-free medium, as an appropriate stimulus, and seed extracts were added. Controls included 10^−7 and 5×10^−8 M 12-O-tetradecanoyl phorbol-13-acetate (TPA) to ensure the responsiveness of the cell culture. The samples were added to serum free medium and sterile filtered prior to addition to the cultures. Assays were performed in triplicate or quadruplicate. Analyses of the cell responses were made between 18 and 28 hours of serum deprivation. Two assays were performed on each cell culture plate consisting of differential cell counts.
1. All non-adherent or loosely adherent cells were removed from the culture dish and counted by appropriate techniques, typically counting by electronic particle counting instrument. These are the apoptotic cells, the serum deprived released cells (SDR), released by the action of cultivation in serum-free medium. Approximately 95% of these released cells are apoptotic as shown by both ultrastructure analysis and DNA fragmentation analysis.
2. The remaining adherent cells (ADH) were exposed to a buffered, typically pH 7.3, balanced salt solution such as a Hanks Balanced Salt Solution without calcium and magnesium salts containing 0.05% trypsin and 0.53 mM ethylene diaminetetraacetic acid (EDTA). Each culture was incubated at either room temperature or 37(C on a rocking platform to ensure uniform distribution of the trypsin reagent over the culture surface. After a standardized period of time, typically 10 minutes, the released cells were removed from each culture dish and measured by the same means as described above, typically electronic particle counting. This ADH cell count is comprised of both trypsin resistant and trypsin sensitive cells as described in U.S. Pat. Nos. 5,637,486, 5,620,888, and 5,681,703.
Anti-apoptotic activity is expressed in the following examples as the calculated concentration of material ((g/ml of media) required to save 50% of the cells released on serum free treatment.
The ability of 18:1-LPA an other LPAs to protect serum-starved cells from apoptotic death was measured using the C3H/10T1/2 cell assay, performed as described in Example 2. The effect of various compounds on the ability of lysophosphatidic acid to protect serum-starved cells from apoptotic death was also measured. Log phase cells were seeded in 60 mm Petri dishes at 175-350 cells per cm2 and maintained in Basal Medium Eagle (BME) supplemented with 10% Heat Inactivated Fetal Bovine Serum (HIFBS). On day 3 the cells were given fresh media. Treatment began on day 5 when the media containing serum was removed and replaced with the LPA mixture to be tested. After 24 hours of treatment, day 6, serum deprived released (SDR) cells (the […] cell population) and adherent (ADH) cells were separated and counted using an electronic cell counter (Coulter Corporation, Hialea, Fla.). […]

C3H/10T1/2 cells [4] = assay: Effect of proteins on anti-apoptotic activity of soy LPA, C3H/10T1/2 cell assay; format: cell-based; settings: for Protein +10 (g/mL Soy LPA, percent cells saved from apoptosis): 1:10 soy-LPA to protein (weight:weight); for Protein +10 (g/mL Soy LPA, percent cells saved from apoptosis) / Protein Alone (0.01%), percent cells saved from apoptosis: 24 hours serum deprivation; for Increase with LPA: difference protein + soy LPA minus protein alone; for Protein Alone (0.01%), percent cells saved from apoptosis: protein without LPA; for enhancement of the anti-apoptotic activity of soy-LPA (more than additive protection): soy-LPA added together with protein
Experimental: Soy derived LPA (soy-LPA) (Avanti® Polar Lipids, Inc., Alabaster, Ala.) was stored in an organic solution and was dried immediately prior to assay using a Speed Vac (Savant Instruments, Hicksville, N.Y.). Tested proteins were resuspended at 10_mg/mL in a bicarbonate buffered saline/EDTA solution (50_mM NH4HCO3, […] NaCl, 250_(M EDTA) prior to being added to dried soy-LPA at a 1:10_soy-LPA to protein (weight:weight) ratio. The mixture was then sonicated for 5 minutes using a high power 80 Watt sonication bath (Laboratory Supplies Co., Hicksville, N.Y.). Following sonication, concentrated LPA/protein mixtures were left standing for 15 minutes at room temperature prior to dilution in cell culture assay media.
The effect of various proteins on the ability of LPA to protect serum-starved cells from apoptotic death was measured using the C3H/10T1/2 cell assay, performed as described in Example 2, above. Log phase cells were seeded in 60 mm Petri dishes at 175-350 cells per cm^2 and maintained in Basal Medium Eagle (BME) supplemented with 10% fetal calf serum (Hyclone, Logan, Utah). At time zero, serum containing media was replaced with sterile filtered BME containing the LPA/protein mixture to be tested. After 24 hours of treatment, serum deprived release (SDR) cells (the apoptotic cell population) and adherent (ADH) cells were separated and counted using an electronic cell counter (Coulter Corporation, Hialea, Fla.). SDR cells were counted with the lower threshold setting at 6.3_(m and were defined as the apoptotic cells dying in response to cultivation in serum-free-media. Approximately 95% of the SDR cells are confirmed to be apoptotic as previously shown by size, ultrastructure and DNA fragmentation analysis. Adherent cells were removed by treatment with a Hanks' balanced salt solution containing 0.05% trypsin and 0.53_mM EDTA and were counted with the lower threshold setting at 11.01_(m. All samples were tested in triplicate and serum-deprived controls (BME only) were assayed at both the beginning and end of each experiment.

[5] = Electrophoresis radiobinding assay (native polyacrylamide gel); format: binding; settings: FIG. 9 and other experiments
Experimental: Electrophoresis radiobinding assay. Proteins were analyzed on native polyacrylamide gels following incubation with ^3H-labeled 18:1-LPA. ^3H-labeled lysophosphatidic acid (1-oleyl) (DuPont NEN Products, Boston, Mass.) was added to tested proteins at 1 nM labeled 18:1-LPA/45_(g protein. Mixtures were incubated at a bicarbonate buffered saline/EDTA solution at 37° C. for 60 minutes. Incubated samples were mixed with native gel sample buffer (312_mM Tris pH 6.8, 50% glycerol, 0.05% bromophenol blue) and loaded entirely onto an 8% discontinuous native polyacrylamide gel. Following electrophoresis, proteins were fixed into the gels using an aqueous solution consisting of glacial acetic acid, 10% (vol/vol) and methan 130% (vol./vol.) solution. Fixed gels were then incubated for 60 minutes in autoradiography enhancer (EN^3HANCE, DuPont NEN Products, Boston, Mass.), and dried onto 3M chromatography paper (Whatman, Clifton, N.J.) and exposed to autoradiography film (X-Omat, Kodak, Rochester, N.Y.) for 72 hours at −80° C.

[6] = Size shift assay (Superdex S75 column); format: binding; settings: FIGS. 10A-10D
Experimental: Size shift assay. Size analysis of LPA both with and without protein was performed using a Superdex® S75 column (Pharmacia Biotech, Uppsala, Sweden). Soy LPA was combined in a chloroform solution with 0.5 Ci^3H-labeled 18:1-LPA (DuPont NEN Products, Boston, Mass.), dried under vacuum and resuspended by sonication in a buffered solution (50 mM ammonium bicarbonate, 154 mM sodium chloride, pH 8.0) in the presence or absence of test protein. The ammonium bicarbonate/sodium chloride solution was used as the mobile phase at a flow rate of 1 ml/min. One-minute fractions were collected for 30 minutes following sample injection. Fractions were counted in scintillant solution using a liquid scintillation counter (Beckman Instrument, Irvine, Calif.). Calibration was performed using a standard solution containing purified proteins (BioRad, Hercules, Calif.).

[7] = serum-deprived C3H/10T1/2 cells, 24 hours of treatment

Molecule | Protein +10 (g/mL Soy LPA, percent cells saved from apoptosis) (C3H/10T1/2 cells [4]) | Increase with LPA (C3H/10T1/2 cells [4]) | Protein Alone (0.01%), percent cells saved from apoptosis (C3H/10T1/2 cells [4]) | enhancement of the anti-apoptotic activity of soy-LPA (more than additive protection) (C3H/10T1/2 cells [4]) | binding to 18:1-LPA, detectable band [5] | elution profile / binding of LPA to protein [6] | also measured
CCCCCCCC/C=C\CCCCCCCC(=O)OCC(O)COP(=O)(O)O (centres unmarked) [18:1 LPA, oleoyl-lysophosphatidic acid, reference compound] |  |  |  |  |  |  | protection against cardiomyocyte death [1]: equally protect; Concentration ranges for cardiomyocyte protection [2]: 0.3 to 10 µM; Maximum effect relative to 18:1 LPA in cardiomyocytes [2]: 100%; cells protected (C3H/10T1/2 cells [3]; 0.75 (g/ml added together with PS, FIG. 2)): approximately 75%; cells protected (C3H/10T1/2 cells [3]; 1:1 PG:PC particles with 23.5% by weight 18:1-LPA, FIG. 3): about 57%; cells protected (C3H/10T1/2 cells [3]; 5 (M, FIG. 5), medium alone 30%): about 62%; cells protected (C3H/10T1/2 cells [3]; 5 (M, FIG. 6)): 75%; cells protected (C3H/10T1/2 cells [3]; 15 (M, FIG. 6)): 80%; efficacy (C3H/10T1/2 cells [3]; 18:1-LPA/PG particles with 5 to 10 mol % PE-PEG (2000 MW), FIG. 2): reduced efficacy; cells saved (C3H/10T1/2 cells [3]; 23.5 weight percent with PG, FIG. 3): about 50%; cells protected (C3H/10T1/2 cells [3]; 30% (by weight) mixture with 1:1 PA:PI, equivalent to Five Phospholipid Mixture at 10 (g/ml, FIG. 7), medium alone 38%): about 82%; cells protected from apoptosis (C3H/10T1/2 cells [3]; LPA equivalent to 10 (g/ml Five Phospholipid Mixture, 10% by weight with PG, FIG. 3)): approximately 65%; anti-apoptotic activity (C3H/10T1/2 cells [3]; combined with BME (containing calcium) and filtered): appeared to be inhibited; anti-apoptotic activity (C3H/10T1/2 cells [3]; combined with BSA in BME (containing calcium)): preserved the anti-apoptotic activity; protection from apoptosis (C3H/10T1/2 cells [3]; combined with polyethylene glycol or BSA): protects serum-deprived 10T1/2 cells from apoptosis; protection from serum deprivation-induced cell death (C3H/10T1/2 cells [3]; incorporated into PC, PC/PE-PEG, or PC/EtPC, FIG. 8): effective in protecting cells from serum deprivation-induced cell death; cells protected (C3H/10T1/2 cells [3]; incorporated into phosphatidyl glycerol (PG), FIG. 2): up to 90%; Concentration for Max Effect (C3H/10T1/2 cells [3]; [7]): 10 µM; Maximum effect relative to 18:1 LPA (C3H/10T1/2 cells [3]; [7]): 100%
Acyl Carrier Protein: acyl carrier protein from E. coli | 36.2% | +28.1% | 8.1% | to a lesser degree | did not yield detectable bands |  | 
Albumin (Fatty Acid Depleted): fatty acid depleted (FAD) bovine serum albumin (BSA) | 58.7% | +57.8% | 0.9% |  | bind to 18:1-LPA | most of the LPA was bound to BSA | 
Cytochrome C: cytochrome C from bovine heart | 54.6% | +38.4% | 16.2% |  |  | LPA does not bind to this protein | 
B1 | 15.I | +7.2% | 7.9% | did not enhance | produce a detectable band |  | 
